Assay [1] addresses T1, HIV-1 protease (Q7S mutant form) (Human immunodeficiency virus type 1 group M subtype B, UniProt P04585, Q495S).
T1 construct: made in house
The assay can be described thus: HIV-1 Protease RET assay. It is filed as biochemical. The method, boiled down:
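Ki values fitted with the Morrison tight-binding equation from steady-state RET cleavage (ex 340, em 490 nm) of 5 μM RE(EDANS)SQNYPIVQK(DABCYL)R. Buffer pH 4.8 acetate, 1M NaCl, 5 mM DTT, 1 mg/ml BSA, 10% DMSO; 2 nM Q7S mutant dimer, 37 °C, 12 min.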

Assay [2] concerns HIV-1 (HIV-1 RF, HIV-1 NL4-3) in CEM-SS / MT-2 cells. The assay can be described thus: Cytopathic effect (CPE) inhibition assay (XTT/MTT dye reduction). Type of assay: cell-based. The procedure:
T-cell lines, CEM-SS, and MT-2, and viruses HIV-1 RF and HIV-1 NL4-3 (pNL4-3) were obtained from the National Institutes of Health (AIDS Research and Reference Reagent Program, Bethesda, Md.).
Cytopathic Effect (CPE) Inhibition Assays
The ability of compounds to protect cells against HIV infection was measured by the […] dye reduction method, essentially as described (See Pauwels, R. Balzarini, J. Baba, M. Snoeck, R. Schols, D. Herdewijn, P. Desmyter, J. and De Clercq, E. 1988, “Rapid and automated tetrazolium-based colorimetric assay for the detection of anti-HIV compounds,”. J Virol. Methods., 20: 309–321 and Weislow, O. S. Kiser, R. Fine, D. L. Bader, J. Shoemaker, R. H. and Boyd, M. R. 1989. “New soluble-formazan assay for HIV-1 cytopathic effects: application to high-flux screening of synthetic and natural products for AIDS-antiviral activity”. J. Natl. Cancer Inst. 81:577–586). Subject cells were infected with test virus at an moi of 0.025 to 0.819 or mock infected with medium only and added at 2×10^4 cells per well into 96 well plates containing half-log dilutions of test compounds. Six days later, 50 μl of XTT (1 mg/ml XTT tetrazolium, 0.02 nM phenazine methosulfate) was added to the wells and the plate was reincubated for four hours. Viability, as determined by the amount of XTT formazan produced, was quantified spectrophotometrically by absorbance at 450 nm. Data from CPE assays were expressed as the percent of formazan produced in compound-treated cells compared to formazan produced in wells of uninfected, compound-free cells. The fifty percent effective concentration (EC50) was calculated as the concentration of compound that effected an increase in the percentage of formazan production in infected, compound-treated cells to 50% of that produced by uninfected, compound-free cells. The 50% cytotoxicity concentration (CC50) was calculated as the concentration of compound that decreased the percentage of formazan produced in uninfected, compound-treated cells to 50% of that produced in uninfected, compound-free cells. The therapeutic index was calculated by dividing the cytotoxicity (CC50) by the antiviral activity (EC50).
Background: Protection from cytopathic effect is a common read-out in antiviral testing.

[3] abbreviates: Ave. Ki (nM), RET assay, Q7S enzyme, Morrison tight binding fit.
Setting [4] is: Human immunodeficiency virus 1, NL43, read-out: Ave CPE EC50.
Setting [5] is: Human immunodeficiency virus 1, NL43, unit inferred, read-out: EC50.

Where two headings read alike, the source gives them in different places.

Regarding `Cc1ccc(C(=O)N[C@@H](Cc2ccccc2)[C@H](O)C(=O)N2CSC(C)(C)[C@H]2C(=O)N[C@H]2CCc3ccccc32)c(C)c1O` [Example B43, (R)-3-((2S,3S)-2-Hydroxy-3-{[1-(3-hydroxy-2,4-dimethyl-phenyl)-methanoyl]-amino}-4-phenyl-butanoyl)-5,5-dimethyl-thiazolidine-4-carboxylic acid (S)-indan-1-ylamide], the Ki in assay [1] (setting [3]) was below 0.1 nM. Moreover, the EC50 in assay [2] (setting [4]) came to 375 nM.
For `C#CCOC(=O)N[C@@H](Cc1ccccc1)[C@H](O)C(=O)N1CSC(C)(C)[C@H]1C(=O)NCc1c(F)cccc1F` [Example B51, {1-Benzyl-3-[4-(2,6-difluoro-benzylcarbamoyl)-5,5-dimethyl-thiazolidin-3-yl]-2-hydroxy-3-oxo-propyl}-carbamic acid prop-2-ynyl] the same measures were 0.99 nM and above 3200 nM.
For `Cc1ccccc1CNC(=O)[C@H]1N(C(=O)[C@@H](O)[C@H](Cc2ccccc2)NC(=O)c2cccc3[nH]ncc23)CSC1(C)C` [Example B9, 1H -Indazle-4-carboxylic acid {1-benzyl-3-[5,5-dimethyl-4-(2-methyl-benzylcarbamoyl)-thiazolidin-3-yl]-2-hydroxy-3-oxo-propyl}-amide] the same measures were 1.1 nM and 452 nM.
The like results for `Cc1c(O)cccc1C(=O)N[C@@H](Cc1ccccc1)[C@H](O)C(=O)N1CSC(C)(C)[C@H]1C(=O)NCc1csc2ccc(Cl)cc12` [Example A24, (R)-3-((2S,3S)-2-Hydroxy-3-{[1-(3-hydroxy-2-methyl-phenyl)-methanoyl]-amino}-4-phenyl-butanoyl)-5,5-dimethyl-thiazolidine-4-carboxylic acid (5-chloro-benzo[b]thiophen-3-ylmethyl)-amide] were, in that order, 0.52 nM and 466 nM.
`Cc1cccc(C)c1OCC(=O)N[C@@H](Cc1ccccc1)[C@H](O)C(=O)N1CSC(C)(C)[C@H]1C(=O)NCC1CC1` [Example B27, (R)-3-{(2S,3S)-3-[2-(2,6-Dimethyl-phenoxy)-ethanoylamino]-2-hydroxy-4-phenyl-butanoyl}-5,5-dimethyl-thiazolidine-4-carboxylic acid cyclopropylmethyl-amide] yielded a Ki in assay [1] (setting [3]) of 0.5 nM. Moreover, in assay [2] (setting [4]), the EC50 is 506 nM.
For `Cc1ccccc1CNC(=O)[C@@H]1C2CCC(CC2)N1C(=O)[C@@H](O)[C@H](Cc1ccccc1)NC(=O)c1cccc(O)c1C`, the Ki in assay [1] (Ki, unit inferred) stood at 9.8 nM. For the same molecule, the EC50 in assay [2] (setting [5]) was at least 3200 nM.
The like results for `CCC(=O)NC(Cc1ccccc1)[C@H](O)C(=O)N1CSC(C)(C)C1C(=O)NCc1ccccc1C` (stereo partly drawn) were, in that order, 8.4 nM and at least 3200 nM.
In turn, `Cc1c(O)cccc1C(=O)N[C@@H](Cc1ccccc1)[C@H](O)C(=O)N1CSC(C)(C)[C@H]1C(=O)NCC1CCOC1` (stereo partly drawn) [Example A46, (R)-3-((2S,3S)-2-Hydroxy-3-{[1-(3-hydroxy-2-methyl-phenyl)-methanoyl]-amino}-4-phenyl-butanoyl)-5,5-dimethyl-thiazolidine-4-carboxylic acid (tetrahydro-furan-3-ylmethyl)-amide] had a Ki in assay [1] (setting [3]) of 1.1 nM. In addition, the EC50 in assay [2] (setting [4]) was found to be 469 nM.
On to `Cc1ccccc1CNC(=O)[C@H]1N(C(=O)[C@@H](O)[C@H](Cc2ccccc2)NC(=O)c2cccc3c2CCCN3)CSC1(C)C` [Example B2, 1,2,3,4-Tetrahydro-quinoline-5-carboxylic acid {(1S,2S)-1-benzyl-3-[(R)-5,5-dimethyl-4-(2-methyl-benzylcarbamoyl)-thiazolidin-3-yl]-2-hydroxy-3-oxo-propyl}-amide], for which, in assay [1] (setting [3]), the Ki came to 0.35 nM. In addition, the EC50 in assay [2] (setting [4]) is 87 nM.
The like results for `Cc1ccccc1CNC(=O)[C@H]1N(C(=O)[C@@H](O)[C@H](Cc2ccccc2)NC(=O)NCc2ccccc2)CSC1(C)C` [Example B59, 3-[(2S,3S)-3-(3-Benzyl-ureido)-2-hydroxy-4-phenyl-butyryl]-5,5-dimethyl-thiazolidine-4-carboxylic acid 2-methyl-benzylamide] were, in that order, 2.1 nM and 1820 nM.
Molecule `Cc1ccc(C(=O)N[C@@H](Cc2ccccc2)[C@H](O)C(=O)N2CSC(C)(C)[C@H]2C(=O)NCc2ccco2)c(C)c1O` came in with an inhibition constant Ki in assay [1] (Ki, unit inferred) of 2 nM. In addition, the EC50 in assay [2] (setting [5]) was determined as 488 nM.
In assay [1] (setting [3]), `Cc1ccccc1CNC(=O)[C@@H]1CC(F)(F)CN1C(=O)[C@@H](O)[C@H](Cc1ccccc1)NC(=O)O[C@H]1CCOC1` [Example C41, {(1S,2S)-1-Benzyl-3-[(S)-4,4-difluoro-2-(2-methyl-benzylcarbamoyl)-pyrrolidin-1-yl]-2-hydroxy-3-oxo-propyl}-carbamic acid (S)-(tetrahydro-furan-3-yl)ester] had a Ki of 1.3 nM. In addition, the EC50 in assay [2] (setting [4]) was 1430 nM.
The like results for `CCCNC(=O)[C@H]1N(C(=O)[C@@H](O)[C@H](Cc2ccccc2)NC(=O)c2cc(C)cc(O)c2C)CC(F)(F)C1(C)C` [Example D4, (S)-4,4-Difluoro-1-[(2S,3S)-2-hydroxy-3-(3-hydroxy-2,5-dimethyl-benzoylamino)-4-phenyl-butyryl]-3,3-dimethyl-pyrrolidine-2-carboxylic acid propylamide] were, in that order, below 0.1 nM and 9 nM.
The like results for `Cc1c(O)cccc1C(=O)N[C@@H](Cc1ccccc1)[C@H](O)C(=O)N1CSC(C)(C)[C@H]1C(=O)NCc1oc2ccccc2c1C` [Example A54, (R)-3-[(2S,3S)-2-Hydroxy-3-(3-hydroxy-2-methyl-benzoylamino)-4-phenyl-butyryl]-5,5-dimethyl-thiazolidine-4-carboxylic acid (3-methyl-benzofuran-2-ylmethyl)-amide] were, in that order, 4.5 nM and 1230 nM.
For `CC1(C)SCN(C(=O)[C@@H](O)[C@H](Cc2ccccc2)NC(=O)c2cccc3c2CCN3)[C@@H]1C(=O)NC[C@H]1CCCO1` [Example B44, 2,3-Dihydro-1H-indole-4-carboxylic acid [(1S,2S)-1-benzyl-3-((R)-5,5-dimethyl-4-{[(R)-1-(tetrahydro-furan-2-yl)methyl]-carbamoyl}-thiazolidin-3-yl)-2-hydroxy-3-oxo-propyl]-amide] the same measures were 4.8 nM and 660 nM.
Take `C=CCNC(=O)N[C@@H](Cc1ccccc1)[C@H](O)C(=O)N1CSC(C)(C)[C@H]1C(=O)NCc1ccccc1C` [Example B13, (R)-3-[(2S,3S)-3-(3-Allyl-ureido)-2-hydroxy-4-phenyl-butyryl]-5,5-dimethyl-thiazolidine-4-carboxylic acid 2-methyl-benzylamide]: the Ki in assay [1] (setting [3]) came out at 2 nM. Besides, the EC50 in assay [2] (setting [4]) is 1460 nM.
With `C=CCCOC(=O)N[C@@H](Cc1ccccc1)[C@H](O)C(=O)N1CSC(C)(C)[C@H]1C(=O)NCc1ccccc1C` [Example B14, {(1S,2S)-1-Benzyl-3-[(R)-5,5-dimethyl-4-(2-methyl-benzylcarbamoyl)-thiazolidin-3-yl]-2-hydroxy-3-oxo-propyl}-carbamic acid but-3-enyl ester], the Ki in assay [1] (setting [3]) came to 2.7 nM. The 50% effective concentration (EC50) in assay [2] (setting [4]) stood at 1660 nM.
The like results for `CC1(C)SCN(C(=O)[C@@H](O)[C@H](Cc2ccccc2)NC(=O)c2cccc3c2CCN3)[C@@H]1C(=O)N[C@H]1CCOc2ccccc21` [Example B29, 2,3-Dihydro-1H-indole-4-carboxylic acid {(1S,2S)-1-benzyl-3-[(R)-4-((S)-chroman-4-ylcarbamoyl)-5,5-dimethyl-thiazolidin-3-yl]-2-hydroxy-3-oxo-propyl}-amide] were, in that order, 0.82 nM and 63 nM.
With `Cc1ccccc1CNC(=O)[C@@H]1C[C@@H]2CCCC[C@@H]2CN1C[C@@H](O)[C@H](CSc1ccccc1)NC(=O)c1cccc(O)c1C`, in assay [1] (Ki, unit inferred), the inhibition constant Ki was determined as 6.4 nM. The EC50 in assay [2] (setting [5]) turned out to be 901 nM.
For `CCN1CCc2c(C(=O)N[C@@H](Cc3ccccc3)[C@H](O)C(=O)N3CSC(C)(C)[C@H]3C(=O)NCc3ccccc3C)cccc21` the same measures were 6.7 nM and 1010 nM.
For `CCCNC(=O)[C@H]1N(C(=O)[C@@H](O)[C@H](Cc2ccccc2)NC(=O)OCCC)CSC1(C)C` the same measures were 12.7 nM and at least 3200 nM.

In general, Ki refers to a measure of affinity in units of concentration, obtained from inhibition or displacement. Low values mean higher affinity, high ones lower affinity. By EC50 is commonly meant the concentration needed to bring the measured effect to its halfway point.

Values taken from patent publication US7094909B2, “HIV protease inhibitors, compositions containing the same, their pharmaceutical uses and materials for their synthesis” (priority 2001, dated 2006).
